Results as given in PubChem BioAssay (NCI).
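Results reflect a 48-hour exposure of cells in 96-well plates to compound at five concentrations. Abbreviation: GI50, concentration required for 50% inhibition of growth. Definition used: TGI = concentration required for complete inhibition of growth.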

How the values were obtained:
Assay in all cases: NCI anticancer screen, dose series, 48 h
[1] = test system: SK-MEL-28 melanoma
[2] = test system: OVCAR-8 ovarian
[3] = test system: SN12C renal
[4] = test system: SF-295 CNS
[5] = test system: NCI-H522 lung
[6] = test system: OVCAR-4 ovarian
[7] = test system: DU-145 prostate
[8] = test system: SK-MEL-2 melanoma
[9] = test system: EKVX NSCLC
[10] = test system: HCT-15 colon

Row | Structure (SMILES) | GI50 [1] | TGI [1] | GI50 [2] | TGI [2] | GI50 [3] | TGI [3] | GI50 [4] | TGI [4] | GI50 [5] | TGI [5] | GI50 [6] | TGI [6] | GI50 [7] | TGI [7] | GI50 [8] | TGI [8] | GI50 [9] | TGI [9] | GI50 [10] | TGI [10]
1 | CN(C)CCCC1(c2ccc(F)cc2)OCc2cc(-c3ccc4cc[nH]c4c3)ccc21 (stereo not given) | 1.8 µM | 3.36 µM | 3.32 µM | 13.8 µM | 1.73 µM | 3.56 µM | 1.79 µM | 3.31 µM | 2.07 µM | 4.49 µM | 2.16 µM | 4.72 µM | 1.9 µM | 3.46 µM | 2.19 µM | 4.72 µM | 2.04 µM | 5 µM | 1.7 µM | 3.14 µM
2 | N#CC1=C(N)Oc2c(sc3c(F)cccc23)C1c1ccc([N+](=O)[O-])cc1 (stereo not given) | 0.34 µM | 1.97 µM | 0.258 µM | 1.78 µM | 0.276 µM | 1.31 µM | 0.184 µM | 1.11 µM | 0.0776 µM | 0.725 µM | 0.312 µM | 1.9 µM | 0.34 µM | 1.38 µM | 0.17 µM | 1.23 µM | 0.432 µM | 2.63 µM | 0.0682 µM | 1.41 µM
3 | NC(=O)c1c(OCc2c(F)cc(Br)cc2F)nsc1NC(=O)NCCCCN1CCCC1 | 1.71 µM | 3.35 µM | 4 µM | > 10 µM | 1.08 µM | 8.28 µM | 2.26 µM | > 10 µM | 1.83 µM | 5.32 µM | > 10 µM | > 10 µM | 4.59 µM | > 10 µM | > 10 µM | > 10 µM | > 10 µM | > 10 µM | 2.85 µM | > 10 µM
4 | O=c1cccc(C#CCCCCOC2CCCO2)o1 (stereo not given) | 23.9 µM | > 56.8 µM | 14.2 µM | > 80.7 µM | 98.6 µM | > 100 µM | 18.4 µM | > 41.4 µM | 3.77 µM | > 64.9 µM | > 33.4 µM | > 60.1 µM | 10.3 µM | > 80 µM | 12.7 µM | > 50.4 µM | 8.27 µM | 39 µM | 19.5 µM | 61.4 µM
5 | COc1cc2cc(C(=O)O)[nH]c2cc1OCc1ccccc1 | 53.5 µM | > 100 µM | > 100 µM | > 100 µM | > 100 µM | > 100 µM | > 100 µM | > 100 µM | > 100 µM | > 100 µM | > 100 µM | > 100 µM | > 100 µM | > 100 µM | 44.9 µM | > 100 µM | > 100 µM | > 100 µM | 84 µM | > 100 µM
6 | CS(=O)(=O)c1ccc(C(F)(F)F)cc1NC(=O)Nc1cnc(Oc2ccc(-c3cc(Cl)cnc3N)cc2)nc1 | 2.21 µM | 5.62 µM | 2.86 µM | > 29 µM | 2.25 µM | 5.26 µM | 1.99 µM | 5.71 µM | 2.23 µM | 6.64 µM | 2.9 µM | 12.4 µM | 3.21 µM | > 54.2 µM | 2.34 µM | 5.03 µM | 2.57 µM | > 37.5 µM | 2.74 µM | 13.4 µM
7 | O=[N+]([O-])c1ccc2nc(N/N=C/c3ccc(O)cc3)sc2c1 | 9.43 µM | 57.2 µM | 3.75 µM | 32.2 µM | 4.4 µM | > 100 µM | 5.61 µM | > 100 µM | 1.49 µM | 10.2 µM | 3.92 µM | 51.8 µM | 3.96 µM | 38.1 µM | 4 µM | 25.7 µM | 7.37 µM | > 100 µM | 3.87 µM | > 100 µM
8 | O=C1Nc2ccccc2SC1C1SC(=S)N(Cc2ccccc2)C1=O (stereo not given) | 4.99 µM | 18 µM | 23.7 µM | > 88.2 µM | 4.79 µM | 15.2 µM | 10.2 µM | 40.2 µM | 5.29 µM | 19.1 µM | 13.9 µM | 33.7 µM | 2.26 µM | 5.58 µM | 18.6 µM | 37.4 µM | 21.7 µM | 53.2 µM | 3.37 µM | 16 µM
9 | Cc1cc(N2CCN(C)CC2)nc(NC2CCCC(Nc3ccnc4cc(Cl)ccc34)C2)n1 (stereo not given) | 1.8 µM | 3.7 µM | 3.75 µM | 15.5 µM | 3.09 µM | 12.2 µM | 1.68 µM | 3.25 µM | 2.29 µM | 5.3 µM | 1.9 µM | 6.24 µM | 3.05 µM | 12.7 µM | 1.99 µM | 4.38 µM | 2.81 µM | 12.5 µM | 0.973 µM | 3.1 µM
10 | O=C1C(Nc2ccccn2)=C(I)C(=O)c2ncccc21 | 1.68 µM | 3.18 µM | 1.29 µM | 5.87 µM | 0.889 µM | 2.56 µM | 1.19 µM | 2.56 µM | 0.725 µM | 2.5 µM | 1.07 µM | 2.27 µM | 0.367 µM | 1.42 µM | 1.76 µM | 3.51 µM | 1.62 µM | 3.3 µM | 0.226 µM | 1.39 µM
11 | C=C1CC2(OC1=O)c1ccccc1CCc1ccccc12 |  | 3.35 µM |  | 9.9 µM |  | 5.47 µM |  | 29.8 µM |  | 3.14 µM |  | 4.65 µM |  | 32.7 µM |  | 12.8 µM |  | 20.3 µM |  | 3.6 µM
12 | C=CCSc1n[nH]c(-c2cccs2)n1 | > 100 µM | > 100 µM | > 100 µM | > 100 µM | > 100 µM | > 100 µM | > 100 µM | > 100 µM | > 100 µM | > 100 µM | > 100 µM | > 100 µM | > 100 µM | > 100 µM | > 100 µM | > 100 µM | > 100 µM | > 100 µM | > 100 µM | > 100 µM
